Measured values: patent US5358945A, “Pyrimidine compound and pharmaceutically acceptable salts thereof” (Mitsui Petrochemical Industries, Ltd., priority 1990, dated 1994)

How the values were obtained:
Mouse neuro 2a cells = assay: Neurite outgrowth of mouse neuroblastoma neuro 2a cells (Table 7); format: cell-based; conditions: mean ± S.D.
Protocol: The biological activities in vitro of the compounds of formula (I) on cells of the nervous system were tested. The cells tested were mouse neuroblastoma cell line neuro-2a (Dainippon Pharmaceutical Co., Ltd.) which have been established as the cells of the nervous system. The above nerve cells were grown in an incubator at 37° C. in the presence of 5% carbon dioxide gas exponentially, and the cultured for a certain period of time together with the compounds of formula (I).
The effects of the compounds of this invention on neuroblastoma cells were examined by the following method.
Mouse neuro 2a cells in the logarithmic growth period in the Dulbecco's modified Eagle's medium [DMEM, containing 100 units/ml of penicillin G sodium and 100 micrograms/ml of streptomycin sulfate] containing 10% of FCS were seeded in a 48-well plate so that the number of cells was 1,000 cells/well, and cultured for one day in 0.25 ml of the culture fluid in each well in an incubator containing 5% of carbon dioxide gas in air at 37° C. The medium was replaced by a medium containing each antibiotics and FCS and the cells were further cultured for 24 hours. Then, a 4% aqueous glutaraldehyde solution in the same amount as a medium (0.25 ml) was added, and the culture was left to stand at room temperature for 2 hours to fix the cells. After washing with water, a 0.05% aqueous solution of methylene blue was added to stain the cells. Under a microscope, the number of cells containing outgrown neurites (cells having at least one neurite with a length of at least two times as large as the long diameter of the cell) was counted visually, and the proportion of these cells in the entire cells was calculated. The well was observed over 5 or more visual fields (at least 2% of the entire surface area of the well) continuous to the left and right from a mark put at the center of the well, and more than 200 cells was counted. One drug compound was used in 6 different concentrations at most, and three runs were conducted for each concentration.

[1] = system: Mouse neuroblastoma cells NS-20Y; assay: Neurite appearance in mouse neuroblastoma NS-20Y cells (Table 8); format: cell-based;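 further: cells grown in polyornithine-coated dishes, with timing counted from the start of culture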
mouse = assay: Acute toxicity in mouse (Table 10); format: in vivo
Protocol: The acute toxicity of the compounds of the invention was examined by the following method.
Male ddy-strain 5-week old mice, 4-6 per group, were used as experimental animals. Each of the compounds was dissolved or suspended in saline and administered perorally (p.o.) or intraperitoneally (i.p.), and the toxicity of the compound was assessed 24 hours after the administration.

[2] = i.p., 24 hours after administration

O=C1CCCN1c1ccnc(N2CCCc3ccccc32)n1 [Compound 360]
Ratio of the number of cells having neurites with a length of at least two times as large as the diameter of cells to the total number of cells (Mouse neuro 2a cells; 0.03 mM): 4.8 ± 1.2% | Ratio of the number of cells having neurites with a length of at least two times as large as the diameter of cells to the total number of cells (Mouse neuro 2a cells; 0.3 mM): 6.7 ± 0.8% | The number of cells in which neurites appeared/Total number of cells ([1]; 24 hour, 0.1 mM): 5/50 | The number of cells in which neurites appeared/Total number of cells ([1]; 24 hour, 0.5 mM): 6/50 | The number of cells in which neurites appeared/Total number of cells ([1]; 48 hour, 0.1 mM): 3/50 | Estimated LD50 (mouse; [2]): > 500 mg/kg

CN(C(=O)C12CC3CC(CC(C3)C1)C2)c1ccnc(N2CCC(c3ccccc3)CC2)n1 [Compound 160]
Ratio of the number of cells having neurites with a length of at least two times as large as the diameter of cells to the total number of cells (Mouse neuro 2a cells; 0.03 mM): 5.1 ± 1.2% | Ratio of the number of cells having neurites with a length of at least two times as large as the diameter of cells to the total number of cells (Mouse neuro 2a cells; 0.1 mM): 11.4 ± 1.3% | Ratio of the number of cells having neurites with a length of at least two times as large as the diameter of cells to the total number of cells (Mouse neuro 2a cells; 0.3 mM): 23.5 ± 2.9% | Ratio of the number of cells having neurites with a length of at least two times as large as the diameter of cells to the total number of cells (Mouse neuro 2a cells; 1 mM): 20.7 ± 2.7% | The number of cells in which neurites appeared/Total number of cells ([1]; 24 hour, 0.2 mM): 2/50 | The number of cells in which neurites appeared/Total number of cells ([1]; 48 hour, 0.1 mM): 3/50 | Estimated LD50 (mouse; in vivo, ip): 500 to 1000 mg/kg

CC(=O)N1CCN(c2ccnc(N3CCC(c4ccccc4)CC3)n2)CC1 [Compound 256]
The number of cells in which neurites appeared/Total number of cells ([1]; 24 hour, 0.1 mM): 3/50 | The number of cells in which neurites appeared/Total number of cells ([1]; 24 hour, 0.2 mM): 3/50 | The number of cells in which neurites appeared/Total number of cells ([1]; 48 hour, 0.1 mM): 4/50 | The number of cells in which neurites appeared/Total number of cells ([1]; 48 hour, 0.2 mM): 3/50 | Estimated LD50 (mouse; [2]): > 1000 mg/kg

O=C1CCCN1c1ccnc(N2CCCCC2)n1 [Compound 272]
Ratio of the number of cells having neurites with a length of at least two times as large as the diameter of cells to the total number of cells (Mouse neuro 2a cells; 0.01 mM): 5.4 ± 0.4% | Ratio of the number of cells having neurites with a length of at least two times as large as the diameter of cells to the total number of cells (Mouse neuro 2a cells; 0.1 mM): 10.5 ± 2.5% | Ratio of the number of cells having neurites with a length of at least two times as large as the diameter of cells to the total number of cells (Mouse neuro 2a cells; 0.3 mM): 25.1 ± 2.7% | Ratio of the number of cells having neurites with a length of at least two times as large as the diameter of cells to the total number of cells (Mouse neuro 2a cells; 1 mM): 20.4 ± 4.9% | Estimated LD50 (mouse; in vivo, ip): 250 to 500 mg/kg

O=C1CCCCN1c1ccnc(N2CCC(c3ccccc3)CC2)n1 [Compound 296]
Estimated LD50 (mouse; [2]): > 1000 mg/kg

O=C1CCCCN1c1ccnc(N2CCCCC2)n1 [Compound 288]
Estimated LD50 (mouse; [2]): > 1000 mg/kg

O=C(c1ccccc1)N1CCN(c2ccnc(N3CCC(c4ccccc4)CC3)n2)CC1 [Compound 248]
The number of cells in which neurites appeared/Total number of cells ([1]; 24 hour, 0.2 mM): 3/50 | The number of cells in which neurites appeared/Total number of cells ([1]; 48 hour, 0.1 mM): 3/50 | Estimated LD50 (mouse; [2]): > 1000 mg/kg

CN(C(=O)c1ccccc1)c1ccnc(N2Cc3ccccc3C2)n1 [Compound 184]
Ratio of the number of cells having neurites with a length of at least two times as large as the diameter of cells to the total number of cells (Mouse neuro 2a cells; 0.01 mM): 0.5 ± 0.8% | Ratio of the number of cells having neurites with a length of at least two times as large as the diameter of cells to the total number of cells (Mouse neuro 2a cells; 0.1 mM): 0.9 ± 0.8% | The number of cells in which neurites appeared/Total number of cells ([1]; 24 hour, 0.1 mM): 2/50 | The number of cells in which neurites appeared/Total number of cells ([1]; 48 hour, 0.1 mM): 3/50

CC(=O)N1CCN(c2ccnc(N3CCCCC3)n2)CC1 [Compound 240]
The number of cells in which neurites appeared/Total number of cells ([1]; 24 hour, 0.1 mM): 3/50 | The number of cells in which neurites appeared/Total number of cells ([1]; 24 hour, 0.5 mM): 5/50 | The number of cells in which neurites appeared/Total number of cells ([1]; 48 hour, 0.2 mM): 5/50 | The number of cells in which neurites appeared/Total number of cells ([1]; 48 hour, 0.5 mM): 6/50 | Estimated LD50 (mouse; in vivo, ip): > 1000 mg/kg

CN(C(=O)c1ccc(O)cc1)c1ccnc(N2CCC(c3ccccc3)CC2)n1 [Compound 264]
The number of cells in which neurites appeared/Total number of cells ([1]; 24 hour, 0.5 mM): 3/50 | The number of cells in which neurites appeared/Total number of cells ([1]; 48 hour, 0.2 mM): 3/50 | Estimated LD50 (mouse; [2]): > 1000 mg/kg
